The record followed here is the NIST ThermoML archive (doi:10.1021/je1011423).

The conditions of the data set: Crystal; thermal gravimetric analysis.

± gives the expanded uncertainty stated by the source.

For `O=[N+]([O-])c1cc([N+](=O)[O-])c(O)c(Cl)c1O` [2-chloro-4,6-dinitroresorcinol], the Normal melting temperature was 185.00 ± 0.01 °C.
